The results in this text go back to patent US11208379B2, “Compounds, compositions, methods for treating diseases, and methods for preparing compounds” (UNIVERSITY OF LOUISVILLE RESEARCH FOUNDATION, INC., priority 2017, dated 2021).

The test system of this assay is A549 lung cancer cells. The experiment in a line: Cell death / cell survival by trypan blue exclusion. Type of assay: cell-based, human. The settings on record: A549, 1 μM, FIG. 36 top panel. How it is done: A549 (human lung adenocarcinoma) cells and MDA-MB-231 (human breast adenocarcinoma) cells were cultured in DMEM medium containing 10% FBS and 1% Penicillin/Streptomycin. IMR-90 (human non-malignant lung fibroblast) cells were cultured in EMEM medium containing 10% FBS and 1% Penicillin/Streptomycin. MCF10A (human non-malignant breast epithelial) cells in MEBM containing 10% FBS. Cell viability after treatment was determined using 3-(4,5-dimethylthiazol-2-yl)-2,5-diphenyltetrazolium bromide (MTT). After 72 h treatment with compound, a 5 mg/ml solution MTT of (Sigma, St. Louis, Mo.) was added in at 1/10 total sample volume. Cells were then incubated for 4 h. Lysis buffer (10% SDS in 0.01 N HCl) was added at half of the original sample volume and incubated overnight. Plates were read at 570 nm. Graphs indicate average of one or two experiments (performed in quadruplet wells)±SEM. Cell death in A549 cells was assessed by trypan blue exclusion. […] ROS production in A549 lung cancer cells after 48 h treatment with the compounds was assayed using ROS-Glo™ H2O2 Assay Kit (Promega).
A549 (human lung adenocarcinoma) cells and MDA-MB-231 (human breast adenocarcinoma) cells were cultured in DMEM medium containing 10% FBS and 1% Penicillin/Streptomycin. IMR-90 (human non-malignant lung fibroblast) cells were cultured in EMEM medium containing 10% FBS and 1% Penicillin/Streptomycin. […]

Each structure is given as a SMILES string.

With `CCOC(=S)N/N=C(C)/C(C)=N/NC(=S)NC` [I-4], the “cell viability (trypan blue exclusion)” value was “less effective”.
